Assay results from US20240390317A1, “COMBINATION TREATMENT AND/OR PREVENTION OF CARDIAC DISEASES IN NON-HUMAN MAMMALS COMPRISING ONE OR MORE SGLT-2 INHIBITORS AND PIMOBENDAN AND/OR TELMISARTAN” (BOEHRINGER INGELHEIM VETMEDICA GMBH, priority 2023, published 2024).

How the values were obtained:
[1] = tested on: canine atrial fibrillation model; conditions: cited from earlier work
[2] = tested on: dogs with a moderate degree of tachypacing-induced heart-failure [dilated cardiomyopathy (DCM) model]; assay: Example 17 laboratory study (DCM model); format: in vivo, beagle dogs; conditions: for creatinine levels / enhancements of diastolic function and performance (i.e., IVRT, E, E′-ave) / enhancements of values indicative of systolic function and performance (i.e., EF, FAS, Simpson EF, s′ wave, LVOT VTI, SV, CO, or SAX Strain) / urine glucose: tachypacing DCM model, three-month dosing
Method: A laboratory study is conducted to evaluate the effects of the SGLT2 inhibitor Velagliflozin with Pimobendan compared to Pimobendan alone and Velagliflozin alone in dogs with a moderate degree of tachypacing-induced heart-failure [dilated cardiomyopathy (DCM) model]. The study involves 12 beagle dogs, divided into three treatment groups, each containing four dogs, in two dosing phases (totaling eight dogs per group). The treatment groups are Pimobendan, Velagliflozin, and a combination of both (Pimobendan+Velagliflozin).
The dogs are implanted with a pacing generator in the right ventricle (Abbott-Johnson K et al., 2021) and subjected to two rounds of dosing for three months each. The heart failure is induced to a moderate degree (EF=˜40-45%) before the start of each dosing round, with the pacing rate maintained throughout the three-month dosing period. After each round, a washout period of about 21-28 days is given before the next round of dosing begins.
Various data are collected throughout the study, including 6-minute walk test, blood and urine analysis, and echocardiography data. The dogs undergo an anesthetized recovery procedure at the end of each three-month round, where systemic hemodynamics are recorded. A single dose of dobutamine is also administered to measure functional reserve at the end of each 3-month period.

[3] = tested on: adults with heart failure and reduced or preserved ejection fraction, with and without diabetes; conditions: cited from earlier work
[4] = tested on: non-diabetic heart failure; conditions: by enhancing myocardial energetics; cited from earlier work
[5] = tested on: mitral regurgitation-induced myocardial dysfunction; conditions: cited from earlier work
[6] = tested on: Dogs With Mitral Valve Disease (MVD); assay: Example 16 exploratory clinical field trial, velagliflozin plus pimobendan vs pimobendan; format: in vivo, dog
Method: The described study is a prospective, baseline controlled, unblinded, open-label, multi-site exploratory clinical field trial. Client owned dogs diagnosed with MVD are randomized at different sites to either a pimobendan or a velagliflozin plus pimobendan treatment group. Eight dogs could be successfully enrolled. […] The clinical field trial is further ongoing.
The dogs that enter the study are evaluated regularly including a full physical examination including bodyweight, blood pressure, auscultation of the cardiovascular system, thoracic radiographs to assess heart size, pulmonary edema and congestion, standard echocardiography, ECG, blood and urine evaluation.
The cardiovascular history is evaluated assessing the date of MVD diagnosis and whether there is a history of heart failure. An owner questionnaire is compiled on a regular basis during the study to provide an overview on the overall condition of the dogs, the respiratory rate per minute at resting and the exercise tolerance during the last seven days of treatment.
The dogs included must be diagnosed with MVD stage B2 or stage C via physical examination and echocardiography. Variables of interest are all clinical parameters evaluated in addition to laboratory values, blood pressure, number of events (death or hospitalization for heart failure or euthanasia), the time-to-event duration, the adjustment of diuretic treatment, owner questionnaire data, x-ray results and overall disease progression (requiring additional, prohibited cardiac treatment).
During the ongoing field trial three dogs are receiving a combined velagliflozin (0.5 mg/kg bodyweight orally once daily) and pimobendan treatment (daily dose of 0.5 mg/kg bodyweight orally divided into two portions that are not necessarily equal).
During the ongoing field trial four dogs are receiving a pimobendan only treatment (daily dose of 0.5 mg/kg bodyweight orally divided into two portions that are not necessarily equal).

Cc1ccc([C@@H]2O[C@H](CO)[C@@H](O)[C@H](O)[C@H]2O)cc1Cc1ccc(-c2ccc(F)cc2)s1 [canagliflozin, Canagliflozin]
atrial remodeling [1]: suppresses

N#Cc1ccc([C@@H]2O[C@H](CO)[C@@H](O)[C@H](O)[C@H]2O)cc1Cc1ccc(C2CC2)cc1 [velagliflozin, Velagliflozin]
creatinine levels [2]: lower
enhancements of diastolic function and performance (i.e., IVRT, E, E′-ave) [2]: little-to-no support
enhancements of values indicative of systolic function and performance (i.e., EF, FAS, Simpson EF, s′ wave, LVOT VTI, SV, CO, or SAX Strain) [2]: little-to-no support
urine glucose [2]: elevated

OC[C@H]1O[C@@H](c2ccc(Cl)c(Cc3ccc(O[C@H]4CCOC4)cc3)c2)[C@H](O)[C@@H](O)[C@@H]1O [empagliflozin, Empagliflozin]
risk for the composite endpoint of cardiovascular death or hospitalization due to heart failure [3]: reduced
adverse left ventricular remodeling [4]: ameliorates

CCOc1ccc(Cc2cc([C@@H]3O[C@H](CO)[C@@H](O)[C@H](O)[C@H]3O)ccc2Cl)cc1 [dapagliflozin, Dapagliflozin]
arrhythmogenesis [5]: mitigates
cardiac hemodynamics [5]: improves

COc1ccc(-c2nc3cc(C4=NNC(=O)CC4C)ccc3[nH]2)cc1 (stereo not shown) [pimobendan, 4,5-dihydro-6-[2-(4-methoxyphenyl)-1H-benzimidazol-5-yl]-5-methyl-3(2H)-pyridazinone]
MINE score ([6]; pimobendan only (0.5 mg/kg/day), first dog, Day 88, before: seven, progresses from moderate to severe disease state): eight
other parameters measured (i.e. heart murmur) ([6]; pimobendan only, first dog): mainly unchanged
Echo Parameter LA/Ao ([6]; pimobendan only, fourth dog, Day 42, Screening 1.88): 1.61
MINE score ([6]; pimobendan only, fourth dog, Day 42, Screening: eight): six
overall condition (owner score) ([6]; pimobendan only, fourth dog, Day 42, Screening: neutral): good
exercise tolerance in the last 7 days (owner score) ([6]; pimobendan only, fourth dog, Day 42, Screening: very poor): good
overall condition and exercise tolerance in the last 7 days (owner report) ([6]; pimobendan only, second dog): improvement
Echo-Parameter LA/Ao ([6]; pimobendan only, second dog, Day 55, Screening 2.14): 1.96
MINE score (echocardiographic parameters) ([6]; pimobendan only, second dog, Day 55, stable, severely diseased): eight
Echo-Parameter LA/Ao ([6]; pimobendan only, third dog, Day 48, Screening 1.60): 1.53
overall condition of the owner score ([6]; pimobendan only, third dog, Day 48, Screening: neutral): good
functional support with enhanced systolic and diastolic performance ([2]; for three months): clear and robust functional support
creatinine levels [2]: does not affect
enhancements of diastolic function and performance (i.e., IVRT, E, E′-ave) [2]: ~20%
enhancements of values indicative of systolic function and performance (i.e., EF, FAS, Simpson EF, s′ wave, LVOT VTI, SV, CO, or SAX Strain) [2]: ~30%
urine glucose [2]: does not affect
